Experimental data as given in ChEMBL document CHEMBL4265872, “Around the macrolide - Impact of 3D structure of macrocycles on lipophilicity and cellular accumulation” (Eur J Med Chem, 2017).

Columns and labels:
[1] = Chromatographic hydrophobicity, logD of the compound at pH 7.4 by fast-gradient RP-HPLC method; format: physicochemical; conditions: buffer
[2] = Drug accumulation in human NCI-H292 cells at 3 to 10 uM incubated for 3 hrs by LC-MS analysis relative to azithromycin; format: ADME, cell-based; conditions: nci-h292, 3 h

Structure (SMILES)	chromatographic logD [1]	Drug uptake [2] [%]
CC[C@H]1OC(=O)[C@H](C)[C@@H](O[C@H]2C[C@@](C)(OC)[C@@H](OC(=O)CN(CC)CC)[C@H](C)O2)[C@H](C)[C@@H](O[C@@H]2O[C@H](C)C[C@H](N(C)C)[C@H]2O)[C@](C)(OC)C[C@@H](C)C(=O)N[C@H](C)[C@@H](O)[C@]1(C)O	3.86	121
CC[C@H]1OC(=O)[C@H](C)[C@@H](O[C@H]2C[C@@](C)(OC)[C@@H](O)[C@H](C)O2)[C@H](C)[C@@H](O[C@@H]2O[C@H](C)C[C@H](N(C)C)[C@H]2O)[C@](C)(OC)C[C@@H](C)/C(=N\O)[C@H](C)[C@@H](O)[C@]1(C)O	3.61	48
CC[C@H]1OC(=O)[C@H](C)[C@@H](O[C@H]2C[C@@](C)(OC)[C@@H](O)[C@H](C)O2)[C@H](C)[C@@H](O[C@@H]2O[C@H](C)C[C@H](N(C)C)[C@H]2O)[C@](C)(O)C[C@@H](C)CN(CCCNC(=O)C2CCC2)[C@H](C)[C@@H](O)[C@]1(C)O	2.31	0
CC[C@H]1OC(=O)[C@H](C)[C@@H](OCCCNC(=O)C2CCC2)[C@H](C)[C@@H](O[C@@H]2O[C@H](C)C[C@H](N(C)C)[C@H]2O)[C@](C)(O)C[C@@H](C)CN(C)[C@H](C)[C@@H](O)[C@]1(C)O	1.78	21
CC[C@H]1OC(=O)[C@H](C)[C@@H](O[C@H]2C[C@@](C)(OC)[C@@H](O)[C@H](C)O2)[C@H](C)[C@@H](O[C@@H]2O[C@H](C)C[C@H](N(C)C)[C@H]2O)[C@](C)(OC)C[C@@H](C)/C(=N\O)[C@H](C)[C@@H](O)[C@]1(C)OCCCNC(C)=O	2.94	9
CC[C@H]1OC(=O)[C@H](C)[C@@H](O[C@H]2C[C@@](C)(OC)[C@@H](O)[C@H](C)O2)[C@H](C)[C@@H](O[C@@H]2O[C@H](C)C[C@H](N(C)CCCNC(C)=O)[C@H]2O)[C@](C)(OC)C[C@@H](C)C(=O)[C@H](C)[C@@H](O)[C@]1(C)O	3.08	27
CCCCCCCC(=O)NCCCN1C[C@H](C)C[C@@](C)(O)[C@H](O)[C@@H](C)[C@H](O)[C@@H](C)C(=O)O[C@H](CC)[C@@](C)(O)[C@H](O)[C@H]1C	3.49	63
CC[C@H]1OC(=O)[C@H](C)[C@@H](O[C@H]2C[C@@](C)(OC)[C@@H](O)[C@H](C)O2)[C@H](C)[C@@H](O[C@@H]2O[C@H](C)C[C@H](N(C)C)[C@H]2O)[C@](C)(O)C[C@@H](C)CN(CCCNC(=O)COC)[C@H](C)[C@@H](O)[C@]1(C)O		2
CC[C@H]1OC(=O)[C@H](C)[C@@H](O[C@H]2C[C@@](C)(OC)[C@@H](OCCCNC(C)=O)[C@H](C)O2)[C@H](C)[C@@H](O[C@@H]2O[C@H](C)C[C@H](N(C)C)[C@H]2O)[C@](C)(OC)C[C@@H](C)C(=O)[C@H](C)[C@@H](O)[C@]1(C)O	3.08	30
CCCCCCCC(=O)NCCCO[C@@H]1[C@@H](C)C(=O)[C@H](C)C[C@@](C)(OC)[C@H](O[C@@H]2O[C@H](C)C[C@H](N(C)C)[C@H]2O)[C@@H](C)[C@H](O[C@H]2C[C@@](C)(OC)[C@@H](O)[C@H](C)O2)[C@@H](C)C(=O)O[C@H](CC)[C@@]1(C)O	5.07	575
CC[C@H]1OC(=O)[C@H](C)[C@@H](OCCCNC(=O)c2c(C)nn(C)c2Cl)[C@H](C)[C@@H](O[C@@H]2O[C@H](C)C[C@H](N(C)C)[C@H]2O)[C@](C)(O)C[C@@H](C)CN(C)[C@H](C)[C@@H](O)[C@]1(C)O		59
CC[C@H]1OC(=O)[C@H](C)[C@@H](O[C@H]2C[C@@](C)(OC)[C@@H](OCCCNC(=O)c3c(C)nn(C)c3Cl)[C@H](C)O2)[C@H](C)[C@@H](O[C@@H]2O[C@H](C)C[C@H](N(C)C)[C@H]2O)[C@](C)(O)C[C@@H](C)CN(C)[C@H](C)[C@@H](O)[C@]1(C)O	2.52	60
CC[C@H]1OC(=O)[C@H](C)[C@@H](O[C@H]2C[C@@](C)(OC)[C@@H](O)[C@H](C)O2)[C@H](C)[C@@H](O[C@@H]2O[C@H](C)C[C@H](N(C)C)[C@H]2OCCCNC(=O)C2CCC2)[C@](C)(O)C[C@@H](C)CN(C)[C@H](C)[C@@H](O)[C@]1(C)O	3.16	124
CC[C@H]1OC(=O)[C@H](C)[C@@H](O[C@H]2C[C@@](C)(OC)[C@@H](O)[C@H](C)O2)[C@H](C)[C@@H](O[C@@H]2O[C@H](C)C[C@H](N(C)C)[C@H]2O)[C@](C)(O)C[C@@H](C)CN(CCCNC(C)=O)[C@H](C)[C@@H](O)[C@]1(C)O	2.06	1
CC[C@H]1OC(=O)[C@H](C)[C@@H](O)[C@H](C)[C@@H](O[C@@H]2O[C@H](C)C[C@H](N(C)C)[C@H]2O)[C@](C)(OC)C[C@@H](C)/C(=N\O)[C@H](C)[C@@H](O)[C@]1(C)O	2.31	17
CCCCCCCC(=O)NCCCN(C)[C@H]1C[C@@H](C)O[C@@H](O[C@@H]2[C@@H](C)[C@H](O[C@H]3C[C@@](C)(OC)[C@@H](O)[C@H](C)O3)[C@@H](C)C(=O)O[C@H](CC)[C@@](C)(O)[C@H](O)[C@@H](C)C(=O)[C@H](C)C[C@@]2(C)OC)[C@@H]1O	6.44	363
CC[C@H]1OC(=O)[C@H](C)[C@@H](O[C@H]2C[C@@](C)(OC)[C@@H](O)[C@H](C)O2)[C@H](C)[C@@H](O[C@@H]2O[C@H](C)C[C@H](N(C)C)[C@H]2O)[C@](C)(OC)C[C@@H](C)C(=O)[C@H](C)[C@@H](OCCCNC(C)=O)[C@]1(C)O	2.72	11
CC[C@H]1OC(=O)[C@H](C)[C@@H](OCCCNC(=O)COC)[C@H](C)[C@@H](O[C@@H]2O[C@H](C)C[C@H](N(C)C)[C@H]2O)[C@](C)(O)C[C@@H](C)CN(C)[C@H](C)[C@@H](O)[C@]1(C)O	1.4	14
CC[C@H]1OC(=O)[C@H](C)[C@@H](O[C@H]2C[C@@](C)(OC)[C@@H](O)[C@H](C)O2)[C@H](C)[C@@H](O[C@@H]2O[C@H](C)C[C@H](N(C)C)[C@H]2O)[C@](C)(OC)C[C@@H](C)C(=O)N[C@H](C)[C@@H](O)[C@]1(C)O	2.41	10

The next lines start with the values.

chromatographic logD [1]	Drug uptake [2] [%]	Structure (SMILES)
2.58	26	CC[C@H]1OC(=O)[C@H](C)[C@@H](O[C@H]2C[C@@](C)(OC)[C@@H](O)[C@H](C)O2)[C@H](C)[C@@H](O[C@@H]2O[C@H](C)C[C@H](N(C)C)[C@H]2O)[C@](C)(O)C[C@@H](C)CN(C)[C@H](C)[C@@H](OCCCNC(=O)COC)[C@]1(C)O
2.72	7	CCCCC(=O)NCCCN1C[C@H](C)C[C@@](C)(O)[C@H](O[C@@H]2O[C@H](C)C[C@H](N(C)C)[C@H]2O)[C@@H](C)[C@H](O[C@H]2C[C@@](C)(OC)[C@@H](O)[C@H](C)O2)[C@@H](C)C(=O)O[C@H](CC)[C@@](C)(O)[C@H](O)[C@H]1C
3.74	756	CCCCC(=O)NCCCO[C@@H]1[C@@H](C)N(C)C[C@H](C)C[C@@](C)(O)[C@H](O[C@@H]2O[C@H](C)C[C@H](N(C)C)[C@H]2O)[C@@H](C)[C@H](O[C@H]2C[C@@](C)(OC)[C@@H](O)[C@H](C)O2)[C@@H](C)C(=O)O[C@H](CC)[C@@]1(C)O
2.62	51	CC[C@H]1OC(=O)[C@H](C)[C@@H](O[C@H]2C[C@@](C)(OC)[C@@H](OCCCNC(=O)C3CCC3)[C@H](C)O2)[C@H](C)[C@@H](O[C@@H]2O[C@H](C)C[C@H](N(C)C)[C@H]2O)[C@](C)(O)C[C@@H](C)CN(C)[C@H](C)[C@@H](O)[C@]1(C)O
4.1	357	CCCCCCCC(=O)NCCCO[C@H]1[C@H](C)O[C@@H](O[C@H]2[C@H](C)[C@@H](O[C@@H]3O[C@H](C)C[C@H](N(C)C)[C@H]3O)[C@](C)(O)C[C@@H](C)CN(C)[C@H](C)[C@@H](O)[C@](C)(O)[C@@H](CC)OC(=O)[C@@H]2C)C[C@@]1(C)OC
1.86	0	CCC(=O)NCCCN1C[C@H](C)C[C@@](C)(O)[C@H](O[C@@H]2O[C@H](C)C[C@H](N(C)C)[C@H]2O)[C@@H](C)[C@H](O[C@H]2C[C@@](C)(OC)[C@@H](O)[C@H](C)O2)[C@@H](C)C(=O)O[C@H](CC)[C@@](C)(O)[C@H](O)[C@H]1C
3.5	138	CC[C@H]1OC(=O)[C@H](C)[C@@H](O[C@H]2C[C@@](C)(OC)[C@@H](O)[C@H](C)O2)[C@H](C)[C@@H](O[C@@H]2O[C@H](C)C[C@H](N(C)C)[C@H]2O)[C@](C)(O)C[C@@H](C)CN(C)[C@H](C)[C@@H](OCCCNC(=O)C2CCC2)[C@]1(C)O
2.16	9	CC[C@H]1OC(=O)[C@H](C)[C@@H](O[C@H]2C[C@@](C)(OC)[C@@H](OCCCNC(=O)COC)[C@H](C)O2)[C@H](C)[C@@H](O[C@@H]2O[C@H](C)C[C@H](N(C)C)[C@H]2O)[C@](C)(O)C[C@@H](C)CN(C)[C@H](C)[C@@H](O)[C@]1(C)O
2.41	7	CC[C@H]1OC(=O)[C@H](C)[C@@H](O[C@H]2C[C@@](C)(OC)[C@@H](O)[C@H](C)O2)[C@H](C)[C@@H](O[C@@H]2O[C@H](C)C[C@H](N(C)C)[C@H]2O)[C@](C)(O)C[C@@H](C)CN(C)[C@H](C)[C@@H](OCCCNC(C)=O)[C@]1(C)O
3.01	51	CC[C@H]1OC(=O)[C@H](C)[C@@H](O[C@H]2C[C@@](C)(OC)[C@@H](O)[C@H](C)O2)[C@H](C)[C@@H](O[C@@H]2O[C@H](C)C[C@H](N(C)C)[C@H]2O)[C@](C)(O)C[C@@H](C)CN(C)[C@H](C)[C@@H](OCCCNC(=O)c2c(C)nn(C)c2Cl)[C@]1(C)O
2.06	6	CC[C@H]1OC(=O)[C@H](C)[C@@H](O[C@H]2C[C@@](C)(OC)[C@@H](OCCCNC(C)=O)[C@H](C)O2)[C@H](C)[C@@H](O[C@@H]2O[C@H](C)C[C@H](N(C)C)[C@H]2O)[C@](C)(O)C[C@@H](C)CN(C)[C@H](C)[C@@H](O)[C@]1(C)O
